This assay has as its target T1, 5-lipoxygenase (5-LO) (Homo sapiens, UniProt P09917).
T1 construct: gene ALOX5
T1 sequence (P09917 1-674): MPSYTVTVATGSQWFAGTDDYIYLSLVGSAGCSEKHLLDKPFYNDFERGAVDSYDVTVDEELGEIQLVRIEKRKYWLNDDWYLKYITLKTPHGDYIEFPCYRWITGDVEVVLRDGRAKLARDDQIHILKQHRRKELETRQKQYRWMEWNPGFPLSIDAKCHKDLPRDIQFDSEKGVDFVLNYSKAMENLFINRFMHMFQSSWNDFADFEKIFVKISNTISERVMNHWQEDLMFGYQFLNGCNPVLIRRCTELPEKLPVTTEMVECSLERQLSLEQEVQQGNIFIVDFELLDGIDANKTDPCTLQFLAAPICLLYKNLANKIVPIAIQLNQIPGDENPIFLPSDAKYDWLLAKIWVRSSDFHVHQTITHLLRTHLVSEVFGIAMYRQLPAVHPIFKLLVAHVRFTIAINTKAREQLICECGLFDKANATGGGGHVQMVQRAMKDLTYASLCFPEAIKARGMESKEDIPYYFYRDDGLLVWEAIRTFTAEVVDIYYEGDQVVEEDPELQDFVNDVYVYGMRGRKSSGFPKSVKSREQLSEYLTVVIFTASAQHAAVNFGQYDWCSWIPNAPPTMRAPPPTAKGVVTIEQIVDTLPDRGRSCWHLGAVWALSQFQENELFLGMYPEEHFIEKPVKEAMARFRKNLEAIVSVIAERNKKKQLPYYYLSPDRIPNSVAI
T1 sequence (P20292 1-161 partner): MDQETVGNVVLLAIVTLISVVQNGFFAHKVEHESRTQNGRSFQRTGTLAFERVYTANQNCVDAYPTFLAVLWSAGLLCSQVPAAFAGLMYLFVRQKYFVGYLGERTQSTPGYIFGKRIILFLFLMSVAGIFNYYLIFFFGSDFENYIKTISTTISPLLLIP
Kind of assay: 5-LO product biosynthesis (RP-HPLC) in thapsigargin-stimulated human PMNL; also HEK293 cells expressing 5-LO and FLAP. The format is cell-based. Conditions: read-out: IC50 (μM) [SEM]^*.

Molecules are shown by their SMILES.

Turning to `O=C(/C=C/c1ccc(O)c(O)c1)OCCc1ccccc1` [compound 3, CAPE], the concentration for half-maximal inhibition (IC50) (usually the point on the concentration scale where inhibition reaches its midpoint) amounted to 1.11 µM.
